# What was measured:
# PC3 (prostate) = test: MTT in vitro cytotoxic activity assay, PC3; format: cell-based; settings: Homo sapiens; cells exposed for 96 hours; 50% inhibition of cell proliferation; read-out: Cytotoxicity activity IC50, PC3 (prostate)
# Protocol: (§1) Compounds 1-16 were screened for their in vitro cytotoxic activity utilizing a 3-(4,5-dimethyl-thiazol-2-yl)-2,5-diphenyltetrazolium bromide (MTT) assay against selected cancer human cell lines consisting of PC3 (prostate), HCT116 (colon), A375 (melanoma), H1299 (lung), MIAPaCa-2 (pancreas), HL60 (leukemia), MCF7 (breast), MDA-MB-231 (breast) (T. Mosmann, J. Immunol. Meth., 1983, 65, 55-63). The cells were cultured at 37° C. in RMPI1640 medium supplemented with 10% fetal bovine serum, 50 IU/mL penicillin, and 50 μg/mL streptomycin in a 5% CO2 incubator. All cells were sub-cultured 3 times/week by trypsinisation. Viable cells were seeded and allowed to adhere for 12 h before a test drug was added in 96-well plates at an initial density of 1.0×10^5 cells/mL. Tumor cell lines were separately exposed to various concentrations of the tested compounds followed by incubation at a temperature of 37° C. during 96 hours inside a medium of fresh RMPI 1640. Cells were subsequently incubated at 37° C. using MTT at 0.5 mg/mL during 4 hours. After removal of supernatant, formazan crystals were dissolved in isopropanol and the optical density was measured at 570 nm. CX-4945 was used as a positive control.
# HCT116 (colon) = test: MTT in vitro cytotoxic activity assay, HCT116; format: cell-based; settings: Homo sapiens, HCT-116; cells exposed for 96 hours; 50% inhibition of cell proliferation; read-out: Cytotoxicity activity IC50, HCT116 (colon)
# Protocol: as §1
# A375 (melanoma) = test: MTT in vitro cytotoxic activity assay, A375; format: cell-based; settings: Homo sapiens, A-375; cells exposed for 96 hours; 50% inhibition of cell proliferation; read-out: Cytotoxicity activity IC50, A375 (melanoma)
# Protocol: as §1
# H1299 (lung) = test: MTT in vitro cytotoxic activity assay, H1299; format: cell-based; settings: Homo sapiens, NCI-H1299; cells exposed for 96 hours; 50% inhibition of cell proliferation; read-out: Cytotoxicity activity IC50, H1299 (lung)
# Protocol: as §1
# MIAPaCa-2 (pancreas) = test: MTT in vitro cytotoxic activity assay, MIAPaCa-2; format: cell-based; settings: Homo sapiens, MIA PaCa-2; cells exposed for 96 hours; 50% inhibition of cell proliferation; read-out: Cytotoxicity activity IC50, MIAPaCa-2 (pancreas)
# Protocol: as §1
# HL60 (leukemia) = test: MTT in vitro cytotoxic activity assay, HL60; format: cell-based; settings: Homo sapiens, HL-60; cells exposed for 96 hours; 50% inhibition of cell proliferation; read-out: Cytotoxicity activity IC50, HL60 (leukemia)
# Protocol: as §1
# MCF7 (breast) = test: MTT in vitro cytotoxic activity assay, MCF7; format: cell-based; settings: Homo sapiens, cells exposed for 96 hours, 50% inhibition of cell proliferation, read-out: Cytotoxicity activity IC50, MCF7 (breast)
# Protocol: as §1
# MDA-MB-231 (breast) = test: MTT in vitro cytotoxic activity assay, MDA-MB-231; format: cell-based; settings: Homo sapiens, cells exposed for 96 hours, 50% inhibition of cell proliferation, read-out: Cytotoxicity activity IC50, MDA-MB-231 (breast)
# Protocol: as §1
# [1] = target: T1, recombinant human CK2 (RRββ-holoenzyme) (Homo sapiens, UniProt P68400); test: CK2 Kinase Assay (radiometric, [γ-33P] ATP); format: biochemical; settings: final ATP concentration 15 μM; 10 min at 30° C.; read-out: protein kinase CK2 IC50
# T1 construct: purchased Millipore
# Protocol: CK2 Kinase Assay was conducted using the protocol as described in Pierre F. et al; J. Med. Chem. 2011, 54, 635-654. The tested compounds in aqueous solution were added at a volume of 10 μL to a reaction mixture comprising 10 μL of assay dilution buffer (ADB; 20 mM MOPS, pH 7.2, 25 mM β-glycerol phosphate, 5 mM EGTA, 1 mM sodium orthovanadate, and 1 mM dithiothreitol), 10 μL of substrate peptide (RRRDDDSDDD, dissolved in ADB at a concentration of 1 mM), 10 μL of recombinant human CK2 (RRββ-holoenzyme, 25 ng dissolved in ADB; Millipore). Reactions were initiated by the addition of 10 μL of ATP solution (90% 75 mMMgCl2, 75 μM ATP (final ATP concentration: 15 μM) dissolved in ADB; 10% [γ-33P] ATP (stock 1mCi/100 μL; 3000 Ci/mmol (Perkin-Elmer) and maintained for 10 min at 30° C. The reactions were quenched with 100 μL of 0.75% phosphoric acid and then transferred to and filtered through a phosphor cellulose filter plate (Millipore). After washing each well five times with 0.75% phosphoric acid, the plate was dried under vacuum for 5 min and, following the addition of 15 μL of scintillation fluid to each well, the residual radioactivity was measured using a Wallac luminescence counter. The IC50 values were derived from eight concentrations of test inhibitors.
# T1 sequence (P68400 whole entry): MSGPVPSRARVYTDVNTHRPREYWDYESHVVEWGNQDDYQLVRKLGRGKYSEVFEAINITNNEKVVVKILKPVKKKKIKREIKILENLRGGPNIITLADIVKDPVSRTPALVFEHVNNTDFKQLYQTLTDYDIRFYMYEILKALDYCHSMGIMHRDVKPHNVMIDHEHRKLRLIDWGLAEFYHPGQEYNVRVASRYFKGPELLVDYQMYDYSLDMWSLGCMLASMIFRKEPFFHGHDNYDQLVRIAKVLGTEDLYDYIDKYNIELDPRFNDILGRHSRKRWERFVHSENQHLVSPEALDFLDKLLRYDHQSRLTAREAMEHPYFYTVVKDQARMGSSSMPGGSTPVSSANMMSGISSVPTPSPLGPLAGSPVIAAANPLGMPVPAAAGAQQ
# T1 sequence (P67870 whole entry partner): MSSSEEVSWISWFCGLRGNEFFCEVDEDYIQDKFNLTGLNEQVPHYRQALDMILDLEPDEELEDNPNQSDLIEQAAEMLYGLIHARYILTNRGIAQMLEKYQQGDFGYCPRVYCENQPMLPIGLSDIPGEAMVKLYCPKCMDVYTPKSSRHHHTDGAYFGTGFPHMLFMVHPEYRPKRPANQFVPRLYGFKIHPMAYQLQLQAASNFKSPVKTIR
structure (smiles),measurement,setting,value
"Clc1cccc(Nc2c3ccncc3nc3c2nn2cnccc32)c1 [Compound 1, N-(3-chlorophenyl)pyrimido[1′,6′:1,5]pyrazolo[4,3-b][1,7]naphthyridin-10-amine]",IC50,PC3 (prostate),1500 nM
same,IC50,HCT116 (colon),1300 nM
same,IC50,A375 (melanoma),3200 nM
same,IC50,H1299 (lung),2900 nM
same,IC50,MIAPaCa-2 (pancreas),1200 nM
same,IC50,HL60 (leukemia),2700 nM
same,IC50,MCF7 (breast),6500 nM
same,IC50,MDA-MB-231 (breast),5100 nM
same,IC50,[1],92 nM

# From patent publication US12173005B1, “Pyrimido[1′,6′:1,5]pyrazolo[4,3-b][1,7]naphthyridine compounds as CK2 inhibitors” (KING FAISAL UNIVERSITY, priority 2023, dated 2024)
